According to US20240308973A1, “PHOSPHODIESTERASE 3 (PDE3) INHIBITORS” (Zoetis Services LLC, priority 2023, published 2024):

Tests used:
[1] = molecular target: dog PDE3A recombinant enzyme (Canis lupus familiaris, UniProt A0A8I3NYE0); test: cPDE3A assay (fluorescent polarization); assay type: biochemical; details: canine PDE3A, read-out: cPDE3 Inhibition (IC50)
Description: cPDE3A Assay (Fluorescent Polarization)
The canine PDE3A assay kit was purchased from BPS Bioscience (San Diego, CA) which included dog PDE3A recombinant enzyme, FAM-cyclic-3′,5′-AMP (20 μM), PDE3 assay buffer, binding agent, binding agent diluent and microtiter 96-well plates. Compounds were initially dissolved in DMSO. The stock concentration was subsequently diluted in cPDE assay buffer (10× stock) and serially diluted to give a concentration response curve starting at 10 μM (≥7 total concentrations). Following the serial dilution, compound solution (0.1% final DMSO) was transferred to an assay plate (96-well) where the remaining canine PDE3A assay reagents were dispensed according to the BPS Bioscience® protocol (catalog #79735) procedure using a final concentration of 5 pg/μL of enzyme. Each compound was evaluated for the inhibition of the canine PDE3A enzyme activity using the measurement of fluorescent polarization changes. The 50% inhibition concentration (IC50) nM was calculated and reported.

[2] = Dog plasma half-life after oral dose; assay type: in vivo; details: Beagle dogs, oral dose 0.1 mg/kg, plasma over 72 hours, read-out: t½ (hrs), Dog Plasma Compound Half-life (converted)
Description: Lastly, plasma half-life was assessed for a number of compounds in dogs. Beagle dogs were given an oral dose (0.1 mg/kg) of the respective compound accounting for a dose amount of about 1 mg/dog. Pimopendan was administered at a 0.3 mg/kg dose.

dog PDE3A recombinant enzyme, sequence (A0A8I3NYE0 1-1135): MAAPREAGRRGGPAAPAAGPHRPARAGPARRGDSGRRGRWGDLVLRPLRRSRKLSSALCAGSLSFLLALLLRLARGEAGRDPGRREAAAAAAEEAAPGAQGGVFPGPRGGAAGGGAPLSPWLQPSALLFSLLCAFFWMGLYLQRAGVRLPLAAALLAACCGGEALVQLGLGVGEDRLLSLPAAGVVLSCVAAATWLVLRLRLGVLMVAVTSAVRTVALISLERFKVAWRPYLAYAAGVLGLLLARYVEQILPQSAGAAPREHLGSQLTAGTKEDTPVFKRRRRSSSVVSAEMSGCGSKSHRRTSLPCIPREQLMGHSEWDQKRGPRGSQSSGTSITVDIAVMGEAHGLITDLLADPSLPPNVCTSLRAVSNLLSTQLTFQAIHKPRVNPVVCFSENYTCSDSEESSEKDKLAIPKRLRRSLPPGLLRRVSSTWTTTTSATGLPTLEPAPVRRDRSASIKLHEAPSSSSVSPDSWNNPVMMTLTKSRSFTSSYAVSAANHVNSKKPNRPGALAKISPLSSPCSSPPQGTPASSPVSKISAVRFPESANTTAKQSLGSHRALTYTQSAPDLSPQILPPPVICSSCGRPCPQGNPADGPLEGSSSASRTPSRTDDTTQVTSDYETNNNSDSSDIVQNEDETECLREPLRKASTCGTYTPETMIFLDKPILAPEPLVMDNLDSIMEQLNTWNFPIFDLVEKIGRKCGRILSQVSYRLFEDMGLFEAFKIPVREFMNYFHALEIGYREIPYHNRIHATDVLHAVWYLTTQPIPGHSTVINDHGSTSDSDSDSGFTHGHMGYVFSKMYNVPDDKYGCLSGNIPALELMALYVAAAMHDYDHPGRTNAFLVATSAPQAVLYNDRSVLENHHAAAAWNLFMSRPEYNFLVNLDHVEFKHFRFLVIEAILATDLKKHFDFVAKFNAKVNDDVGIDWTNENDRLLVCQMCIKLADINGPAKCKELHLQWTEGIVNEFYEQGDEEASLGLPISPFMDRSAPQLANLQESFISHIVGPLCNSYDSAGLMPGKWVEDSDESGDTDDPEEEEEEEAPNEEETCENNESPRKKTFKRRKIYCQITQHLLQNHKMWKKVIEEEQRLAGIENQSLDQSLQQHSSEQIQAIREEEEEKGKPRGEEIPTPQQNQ

| SMILES | IC50 [1] | half-life [2] |
| --- | --- | --- |
| CC1(C)C(=O)Nc2c(Cl)cc(-c3cnc4c(c3)CC(=O)N4)cc21 [Example #85, 5-(7-chloro-3,3-dimethyl-2-oxoindolin-5-yl)-1,3-dihydro-2H-pyrrolo[2,3-b]pyridin-2-one] | 49.7 nM | 9 h |
| CC1SC(=O)NN=C1c1cc(Cl)c2c(c1)C(C)(C)C(=O)N2 (stereo not shown) [Example #75, 5-(7-chloro-3,3-dimethyl-2-oxoindolin-5-yl)-6-methyl-3,6-dihydro-2H-1,3,4-thiadiazin-2-one] | 9.7 nM | 50 h |
| Cc1cc(C2=NNC(=O)SC2C)cc2c1NC(=O)CCC2 (stereo not shown) [Example #73, 6-methyl-5-(9-methyl-2-oxo-2,3,4,5-tetrahydro-1H-benzo[b]azepin-7-yl)-3,6-dihydro-2H-1,3,4-thiadiazin-2-one] | 4.9 nM | 7.5 h |
| CC1(C)C(=O)Nc2c(F)cc(C3=NNC(=O)SC3)cc21 [Example #59, 5-(7-fluoro-3,3-dimethyl-2-oxoindolin-5-yl)-3,6-dihydro-2H-1,3,4-thiadiazin-2-one] | 22.2 nM | 5.2 h |
| CC1CC(=O)NN=C1c1cc(Br)c2c(c1)C(C)(C)C(=O)N2 (stereo not shown) [Example #23, 7-bromo-3,3-dimethyl-5-(4-methyl-6-oxo-1,4,5,6-tetrahydropyridazin-3-yl)indolin-2-one] | 9.1 nM | 94 h |
| CC1SC(=O)NN=C1c1cc(Br)c2c(c1)C(C)(C)C(=O)N2 (stereo not shown) [Example #76, 5-(7-bromo-3,3-dimethyl-2-oxoindolin-5-yl)-6-methyl-3,6-dihydro-2H-1,3,4-thiadiazin-2-one] | 15.2 nM | 40 h |
| CC1SC(=O)NN=C1c1cc(Cl)c2c(c1)C1(CC1)C(=O)N2 (stereo not shown) [Example #58, 5-(7′-chloro-2′-oxospiro[cyclopropane-1,3′-indolin]-5′-yl)-6-methyl-3,6-dihydro-2H-1,3,4-thiadiazin-2-one] | 8.4 nM | 7 h |
| CC1SC(=O)NN=C1c1cc(F)c2c(c1)C(C)(C)C(=O)N2 (stereo not shown) [Example #74, 5-(7-fluoro-3,3-dimethyl-2-oxoindolin-5-yl)-6-methyl-3,6-dihydro-2H-1,3,4-thiadiazin-2-one] | 13.3 nM | 55 h |
| CC1(C)C(=O)Nc2c(Cl)cc(C3=NNC(=O)SC3)cc21 [Example #61, 5-(7-chloro-3,3-dimethyl-2-oxoindolin-5-yl)-3,6-dihydro-2H-1,3,4-thiadiazin-2-one] |  | 8.5 h |
| COc1ccc(C2(c3nc4ccc(C5=NNC(=O)CC5C)cc4[nH]3)CC2)cc1 (stereo not shown) [Example #19, 6-(2-(1-(4-methoxyphenyl)cyclopropyl)-1H-benzo[d]imidazol-6-yl)-5-methyl-4,5-dihydropyridazin-3 (2H)-one] |  | 16 h |
| C[C@H]1CC(=O)NN=C1c1cc(Cl)c2c(c1)C(C)(C)NC2=O [Example #51, (S)-7-chloro-3,3-dimethyl-5-(4-methyl-6-oxo-1,4,5,6-tetrahydropyridazin-3-yl)isoindolin-2-one] | 336 nM |  |
| CC1SC(=O)NN=C1c1cc2c(c(-c3ccc(S(C)(=O)=O)cc3)c1)NC(=O)C2 (stereo not shown) [Example #63, 6-methyl-5-(7-(4-(methylsulfonyl)phenyl)-2-oxoindolin-5-yl)-3,6-dihydro-2H-1,3,4-thiadiazin-2-one] | 30.5 nM |  |
| CC1CC(=O)NN=C1c1cc(F)c2nc(N3CC(O)C3)sc2c1 (stereo not shown) [Example #37, 6-(4-fluoro-2-(3-hydroxyazetidin-1-yl)benzo[d]thiazol-6-yl)-5-methyl-4,5-dihydropyridazin-3 (2H)-one] | 6.1 nM |  |
| CC1(C)C(=O)Nc2c(Cl)cc(C3=NNC(=O)CC3)cc21 [Example #44, 7-chloro-3,3-dimethyl-5-(6-oxo-1,4,5,6-tetrahydropyridazin-3-yl)indolin-2-one] | 94 nM |  |
| CC1CC(=O)NN=C1c1cc(F)c2c(c1)C1(CCC1)C(=O)N2 (stereo not shown) [Example #43, 7′-fluoro-5′-(4-methyl-6-oxo-1,4,5,6-tetrahydropyridazin-3-yl)spiro[cyclobutane-1,3′-indolin]-2′-one] | 35.5 nM |  |
| CC1CC(=O)NN=C1c1cc(Br)c2nc(O)ccc2c1 (stereo not shown) [compound 45, 6-(8-bromo-2-hydroxyquinolin-6-yl)-5-methyl-4,5-dihydropyridazin-3 (2H)-one] | 3.2 nM |  |
| CC1CC(=O)NN=C1c1cc(Cl)c2c(c1)C1(CC1)C(=O)N2 (stereo not shown) [Example #8, 7′-chloro-5′-(4-methyl-6-oxo-1,4,5,6-tetrahydropyridazin-3-yl)spiro[cyclopropane-1,3′-indolin]-2′-one] | 3.9 nM |  |
| CC1CC(=O)NN=C1c1ccc2nc(Oc3ccc4ncsc4c3)[nH]c2c1 (stereo not shown) [compound 22, 6-(2-(benzo[d]thiazol-6-yloxy)-1H-benzo[d]imidazol-6-yl)-5-methyl-4,5-dihydropyridazin-3 (2H)-one] | 33.1 nM |  |
| CC1CC(=O)NN=C1c1cc(Cl)c2[nH]c(=O)sc2c1 (stereo not shown) [compound 29, 4-chloro-6-(4-methyl-6-oxo-1,4,5,6-tetrahydropyridazin-3-yl)benzo[d]thiazol-2 (3H)-one] | 3.2 nM |  |
| C[C@@H]1CC(=O)NN=C1c1cc(Cl)c2c(c1)C(C)(C)C(=O)N2 [Example #33, (R)-7-chloro-3,3-dimethyl-5-(4-methyl-6-oxo-1,4,5,6-tetrahydropyridazin-3-yl)indolin-2-one] | 3.2 nM |  |
| CC1(C)C(=O)Nc2c(Cl)cc(-c3n[nH]c(=O)s3)cc21 [compound 89, 5-(7-chloro-3,3-dimethyl-2-oxoindolin-5-yl)-1,3,4-thiadiazol-2 (3H)-one] | 25.3 nM |  |
| Cc1cc(=O)[nH]nc1-c1cc(-c2cscn2)c2c(c1)C(C)(C)C(=O)N2 [Example #17, 3,3-dimethyl-5-(4-methyl-6-oxo-1,6-dihydropyridazin-3-yl)-7-(thiazol-4-yl)indolin-2-one] | 62.4 nM |  |
| CC1SC(=O)NN=C1c1cc(Cl)c2c(c1)CC(=O)N2 (stereo not shown) [Example #62, 5-(7-chloro-2-oxoindolin-5-yl)-6-methyl-3,6-dihydro-2H-1,3,4-thiadiazin-2-one] |  | 5 h |
| COc1ncc(-c2cc(C3=NNC(=O)CC3C)cc3c2NC(=O)CC3)s1 (stereo not shown) [Example #4, 8-(2-methoxythiazol-5-yl)-6-(4-methyl-6-oxo-1,4,5,6-tetrahydropyridazin-3-yl)-3,4-dihydroquinolin-2 (1H)-one] | 24.8 nM |  |
| O=c1ccc(-c2cc(Cl)c3[nH]c(=O)sc3c2)n[nH]1 [compound 52, 4-chloro-6-(6-oxo-1,6-dihydropyridazin-3-yl)benzo[d]thiazol-2 (3H)-one] | 24.7 nM |  |
| CC1SC(=O)NN=C1c1cc(C#N)c2c(c1)CC(=O)N2 (stereo not shown) [Example #77, 5-(6-methyl-2-oxo-3,6-dihydro-2H-1,3,4-thiadiazin-5-yl)-2-oxoindoline-7-carbonitrile] | 41.6 nM |  |
| CC1CC(=O)NN=C1c1cc(C2CC2)c2nc(O)ccc2c1 (stereo not shown) [compound 48, 6-(8-cyclopropyl-2-hydroxyquinolin-6-yl)-5-methyl-4,5-dihydropyridazin-3 (2H)-one] | 18 nM |  |
| CC1CC(=O)NN=C1c1cc(F)c2nc(N)sc2c1 (stereo not shown) [Example #31, 6-(2-amino-4-fluorobenzo[d]thiazol-6-yl)-5-methyl-4,5-dihydropyridazin-3 (2H)-one] | 5.5 nM |  |
| O=c1[nH]nc(-c2cc(Cl)c3[nH]c(=O)sc3c2)s1 [compound 88, 4-chloro-6-(5-oxo-4,5-dihydro-1,3,4-thiadiazol-2-yl)benzo[d]thiazol-2 (3H)-one] | 29.2 nM |  |
